ChEMBL document CHEMBL5236651, “Synthesis and antibacterial activity of novel 2‑fluoro ketolide antibiotics with 11,12‑quinoylalkyl side chains” (2023)
In brackets after ≈: the same amount, converted by molar mass.

Legend:
Format in all cases: functional
[1] = tested on: Klebsiella pneumoniae; experiment: Antibacterial activity against ESBL positive Klebsiella pneumoniae ATCC 700603 assessed as inhibition of bacterial growth by CLSI based micro broth double dilution method
[2] = tested on: Klebsiella pneumoniae; experiment: Antibacterial activity against ESBL negative Klebsiella pneumoniae 7 assessed as inhibition of bacterial growth by CLSI based micro broth double dilution method
[3] = tested on: Klebsiella pneumoniae; experiment: Antibacterial activity against ESBL negative Klebsiella pneumoniae 16-2 assessed as inhibition of bacterial growth by CLSI based micro broth double dilution method
[4] = tested on: Streptococcus pyogenes; experiment: Antibacterial activity against erythromycin-sensitive Streptococcus pyogenes ATCC 19615 assessed as inhibition of bacterial growth by CLSI based micro broth double dilution method
[5] = tested on: Streptococcus pyogenes; experiment: Antibacterial activity against erythromycin-resistant Streptococcus pyogenes 12-1 assessed as inhibition of bacterial growth by CLSI based micro broth double dilution method
[6] = tested on: Enterococcus faecalis; experiment: Antibacterial activity against vancomycin-sensitive Enterococcus faecalis […] assessed as inhibition of bacterial growth by CLSI based micro broth double dilution method
[7] = tested on: Enterococcus faecalis; experiment: Antibacterial activity against vancomycin-sensitive Enterococcus faecalis 16-6 assessed as inhibition of bacterial growth by CLSI based micro broth double dilution method
[8] = tested on: Enterococcus faecalis; experiment: Antibacterial activity against vancomycin-resistant Enterococcus faecalis ATCC 51575 assessed as inhibition of bacterial growth by CLSI based micro broth double dilution method
[9] = tested on: Enterococcus faecalis; experiment: Antibacterial activity against vancomycin-resistant Enterococcus faecalis ATCC 51299 assessed as inhibition of bacterial growth by CLSI based micro broth double dilution method
[10] = tested on: Streptococcus pneumoniae; experiment: Antibacterial activity against erythromycin-sensitive Streptococcus pneumoniae ATCC 49619 assessed as inhibition of bacterial growth by CLSI based micro broth double dilution method
[11] = tested on: Streptococcus pneumoniae; experiment: Antibacterial activity against erythromycin-resistant Streptococcus pneumoniae 12-3 assessed as inhibition of bacterial growth by CLSI based micro broth double dilution method
[12] = tested on: Escherichia coli; experiment: Antibacterial activity against ESBL-negative Escherichia coli ATCC 25922 assessed as inhibition of bacterial growth by CLSI based micro broth double dilution method
[13] = tested on: Escherichia coli; experiment: Antibacterial activity against Escherichia coli 16-7 assessed as inhibition of bacterial growth by CLSI based micro broth double dilution method
[14] = tested on: Escherichia coli; experiment: Antibacterial activity against ESBL-positive Escherichia coli ATCC 35218 assessed as inhibition of bacterial growth by CLSI based micro broth double dilution method
[15] = tested on: Staphylococcus epidermidis; experiment: Antibacterial activity against methicillin-sensitive Staphylococcus epidermidis ATCC 12228 assessed as inhibition of bacterial growth by CLSI based micro broth double dilution method
[16] = tested on: Staphylococcus epidermidis; experiment: Antibacterial activity against methicillin-sensitive Staphylococcus epidermidis 16-4 assessed as inhibition of bacterial growth by CLSI based micro broth double dilution method
[17] = tested on: Staphylococcus aureus; experiment: Antibacterial activity against methicillin-sensitive Staphylococcus aureus ATCC 29213 assessed as inhibition of bacterial growth by CLSI based micro broth double dilution method
[18] = tested on: Staphylococcus aureus; experiment: Antibacterial activity against methicillin-sensitive Staphylococcus aureus 15 assessed as inhibition of bacterial growth by CLSI based micro broth double dilution method
[19] = tested on: Staphylococcus aureus; experiment: Antibacterial activity against methicillin-sensitive Staphylococcus aureus 16-1 assessed as inhibition of bacterial growth by CLSI based micro broth double dilution method
[20] = tested on: Pseudomonas aeruginosa; experiment: Antibacterial activity against Pseudomonas aeruginosa ATCC 27853 assessed as inhibition of bacterial growth by CLSI based micro broth double dilution method
[21] = tested on: Pseudomonas aeruginosa; experiment: Antibacterial activity against Pseudomonas aeruginosa PAO1 assessed as inhibition of bacterial growth by CLSI based micro broth double dilution method
[22] = tested on: Pseudomonas aeruginosa; experiment: Antibacterial activity against Pseudomonas aeruginosa 16-11 assessed as inhibition of bacterial growth by CLSI based micro broth double dilution method

| Structure (SMILES) | MIC [1] [µg/mL] | MIC [2] [µg/mL] | MIC [3] [µg/mL] | MIC [4] [µg/mL] | MIC [5] [µg/mL] | MIC [6] [µg/mL] | MIC [7] [µg/mL] | MIC [8] [µg/mL] | MIC [9] [µg/mL] | MIC [10] [µg/mL] | MIC [11] [µg/mL] | MIC [12] [µg/mL] | MIC [13] [µg/mL] | MIC [14] [µg/mL] | MIC [15] [µg/mL] | MIC [16] [µg/mL] | MIC [17] [µg/mL] | MIC [18] [µg/mL] | MIC [19] [µg/mL] | MIC [20] [µg/mL] | other results |
| --- | --- | --- | --- | --- | --- | --- | --- | --- | --- | --- | --- | --- | --- | --- | --- | --- | --- | --- | --- | --- | --- |
| CC[C@H]1OC(=O)[C@@](C)(F)C(=O)[C@H](C)[C@@H](O[C@@H]2O[C@H](C)C[C@H](N(C)C)[C@H]2O)[C@@](C)(OC)C[C@@H](C)C(=O)[C@H](C)[C@H]2N(CCCN(C(C)=O)c3cnc4ccccc4c3)C(=O)O[C@]12C | 32 (≈ 37.3 µM) | > 32 | > 32 | 0.25 (≈ 0.292 µM) | > 32 | 0.12 (≈ 0.14 µM) | > 32 | > 32 | > 32 | 0.06 (≈ 0.07 µM) | 0.25 (≈ 0.292 µM) | > 32 | > 32 | > 32 | 0.25 (≈ 0.292 µM) | 1 (≈ 1.17 µM) | 0.25 (≈ 0.292 µM) | 0.25 (≈ 0.292 µM) | 0.25 (≈ 0.292 µM) | > 32 | MIC [21]: > 32 µg/mL; MIC [22]: > 32 µg/mL |
| CC[C@H]1OC(=O)[C@@](C)(F)C(=O)[C@H](C)[C@@H](O[C@@H]2O[C@H](C)C[C@H](N(C)C)[C@H]2O)[C@@](C)(OC)C[C@@H](C)C(=O)[C@H](C)[C@H]2N(CCCN(C(=O)CCc3ccccc3)c3cnc4ccccc4c3)C(=O)O[C@]12C | > 32 | > 32 | > 32 | 0.5 (≈ 0.528 µM) | 16 (≈ 16.9 µM) | 0.5 (≈ 0.528 µM) | > 32 | > 32 | > 32 | ≤ 0.016 | 0.06 (≈ 0.0633 µM) | > 32 | > 32 | > 32 | 0.5 (≈ 0.528 µM) | 4 (≈ 4.22 µM) | 1 (≈ 1.06 µM) | 1 (≈ 1.06 µM) | 1 (≈ 1.06 µM) | > 32 | MIC [21]: > 32 µg/mL; MIC [22]: > 32 µg/mL |
| CC[C@H]1OC(=O)[C@@](C)(F)C(=O)[C@H](C)[C@@H](O[C@@H]2O[C@H](C)C[C@H](N(C)C)[C@H]2O)[C@@](C)(OC)C[C@@H](C)C(=O)[C@H](C)[C@H]2N(CCCN(C)c3ccnc4ccccc34)C(=O)O[C@]12C | > 32 | > 32 | > 32 | 0.03 (≈ 0.0362 µM) | > 32 | 0.25 (≈ 0.302 µM) | > 32 | > 32 | > 32 | 0.03 (≈ 0.0362 µM) | 0.12 (≈ 0.145 µM) | > 32 | > 32 | > 32 | 0.25 (≈ 0.302 µM) | 2 (≈ 2.41 µM) | 0.5 (≈ 0.603 µM) | 0.5 (≈ 0.603 µM) | 0.5 (≈ 0.603 µM) | > 32 | MIC [21]: > 32 µg/mL; MIC [22]: > 32 µg/mL |
| CC[C@H]1OC(=O)[C@@](C)(F)C(=O)[C@H](C)[C@@H](O[C@@H]2O[C@H](C)C[C@H](N(C)C)[C@H]2O)[C@@](C)(OC)C[C@@H](C)C(=O)[C@H](C)[C@H]2N(CCCN(Cc3ccccc3)c3cnc4ccccc4c3)C(=O)O[C@]12C | 32 (≈ 35.4 µM) | 8 (≈ 8.84 µM) | > 32 | 0.12 (≈ 0.133 µM) | 8 (≈ 8.84 µM) | 0.5 (≈ 0.552 µM) | > 32 | > 32 | > 32 | 0.03 (≈ 0.0331 µM) | 0.25 (≈ 0.276 µM) | > 32 | > 32 | > 32 | 0.25 (≈ 0.276 µM) | 1 (≈ 1.1 µM) | 1 (≈ 1.1 µM) | 0.5 (≈ 0.552 µM) | 0.5 (≈ 0.552 µM) | > 32 | MIC [21]: > 32 µg/mL; MIC [22]: > 32 µg/mL |
| CC[C@H]1OC(=O)[C@@](C)(F)C(=O)[C@H](C)[C@@H](O[C@@H]2O[C@H](C)C[C@H](N(C)C)[C@H]2O)[C@@](C)(OC)C[C@@H](C)C(=O)[C@H](C)[C@H]2N(CCCN(C(=O)c3ccccc3)c3ccnc4ccccc34)C(=O)O[C@]12C | > 32 | > 32 | > 32 | 0.12 (≈ 0.131 µM) | > 32 | 0.25 (≈ 0.272 µM) | > 32 | > 32 | > 32 | ≤ 0.016 | 0.06 (≈ 0.0653 µM) | > 32 | > 32 | > 32 | 1 (≈ 1.09 µM) | 1 (≈ 1.09 µM) | 1 (≈ 1.09 µM) | 1 (≈ 1.09 µM) | 0.5 (≈ 0.544 µM) | > 32 | MIC [21]: > 32 µg/mL; MIC [22]: > 32 µg/mL |
| CC[C@H]1OC(=O)[C@@](C)(F)C(=O)[C@H](C)[C@@H](O[C@@H]2O[C@H](C)C[C@H](N(C)C)[C@H]2O)[C@@](C)(OC)C[C@@H](C)C(=O)[C@H](C)[C@H]2N(CCCN(C(=O)/C=C/c3ccccc3)c3cnc4ccccc4c3)C(=O)O[C@]12C | 32 (≈ 33.9 µM) | > 32 | > 32 | 0.25 (≈ 0.265 µM) | 8 (≈ 8.46 µM) | 0.5 (≈ 0.529 µM) | > 32 | > 32 | > 32 | ≤ 0.016 | 0.25 (≈ 0.265 µM) | > 32 | > 32 | > 32 | 1 (≈ 1.06 µM) | 2 (≈ 2.12 µM) | 1 (≈ 1.06 µM) | 1 (≈ 1.06 µM) | 1 (≈ 1.06 µM) | > 32 | MIC [21]: > 32 µg/mL; MIC [22]: > 32 µg/mL |
| CC[C@H]1OC(=O)[C@H](C)[C@@H](O[C@H]2C[C@@](C)(OC)[C@@H](O)[C@H](C)O2)[C@H](C)[C@@H](O[C@@H]2O[C@H](C)C[C@H](N(C)C)[C@H]2O)[C@](C)(OC)C[C@@H](C)C(=O)[C@H](C)[C@@H](O)[C@]1(C)O [CLARITHROMYCIN] | > 64 | > 64 | > 64 | 0.03 (≈ 0.0401 µM) | 64 (≈ 85.6 µM) | 2 (≈ 2.67 µM) | > 64 | > 64 | > 64 | 0.12 (≈ 0.16 µM) | > 32 | 32 (≈ 42.8 µM) | > 64 | > 64 | 0.12 (≈ 0.16 µM) | 64 (≈ 85.6 µM) | 0.25 (≈ 0.334 µM) | 0.25 (≈ 0.334 µM) | 0.25 (≈ 0.334 µM) | > 64 | MIC [21]: > 64 µg/mL; MIC [22]: > 64 µg/mL |
